From article PMC7729925, “Selective hepatitis B and D virus entry inhibitors from the group of pentacyclic lupane-type betulin-derived triterpenoids” (Scientific Reports, 2020) come the findings set out here.

Experiment [1] has as its target T1, NTCP (Homo sapiens, UniProt Q14973).
T1 construct: expressed in transfected cells
T1 sequence (Q14973 1-349): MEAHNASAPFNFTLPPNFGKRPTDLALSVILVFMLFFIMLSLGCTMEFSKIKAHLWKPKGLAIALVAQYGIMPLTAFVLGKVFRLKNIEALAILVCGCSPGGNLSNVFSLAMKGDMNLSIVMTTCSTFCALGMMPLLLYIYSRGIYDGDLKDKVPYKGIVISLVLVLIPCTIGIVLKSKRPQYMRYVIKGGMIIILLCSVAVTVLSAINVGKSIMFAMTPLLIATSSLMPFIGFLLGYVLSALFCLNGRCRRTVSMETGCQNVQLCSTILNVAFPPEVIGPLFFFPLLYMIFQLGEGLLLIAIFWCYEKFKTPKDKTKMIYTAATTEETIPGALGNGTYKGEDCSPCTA
Nature of the experiment: [3H]TC transport (bile acid uptake) inhibition in NTCP-HEK293 cells. The settings on record: for [3H]TC transport inhibition (in words): 0.1–1,000 µM. It is filed as cell-based. As for the experimental part:
(§1) The major goal of the present study was to analyze in parallel the effect of inhibitors on both, bile acid transport via NTCP and myr-preS1_2-48 lipopeptide binding to NTCP in a cell culture system. […] NTCP-HEK293 cells were seeded onto 96-well plates and were incubated with tetracycline in order to induce expression of the human NTCP protein. […] Experiments were performed with solvent alone (set to 100%) and with increasing concentrations of the indicated inhibitors. […] Half maximal inhibitory concentrations (IC50) were calculated by nonlinear regression analysis using the equation log(inhibitor) versus response (GraphPad Prism). […] Data represent means ± SD of quadruplicate determinations of representative experiments. […] In parallel, [^3H]preS1 peptide binding experiments were performed with a tritium-labelled myr-preS1_2-48 lipopeptide -HBV subgenotype D3- that was purchased from Pharmaron (120 Ci/mmol, 1 mCi/ml, Cardiff, UK). […] Experiments were stopped after 10 min by two-times washing with ice-cold PBS. For 0% uptake/binding control, the NTCP-HEK293 cells were not induced with tetracycline (-tet). […] Transport rates and [^3H]preS1 binding were determined in counts per minute (cpm). […] IC50 values were calculated from quadruplicate determinations by GraphPad Prism 6 (GraphPad, San Diego, CA, USA).

Experiment [2] deals with T1, NTCP. Nature of the experiment: [3H]preS1 (myr-preS1_2-48 lipopeptide) binding inhibition in NTCP-HEK293 cells. To be noted: for IC50: NTCP-HEK293 cells; for Selectivity index: ratio of mean IC50 [3H]TC transport inhibition / IC50 [3H]preS1 binding inhibition. As for the experimental part: as §1
[3] abbreviates: 95% confidence interval, inhibition of 1 µM [3H]TC uptake, NTCP-HEK293 cells, 10 min, 37 °C, read-out: IC50 ([3H]TC uptake).
[4] abbreviates: 95% confidence interval, inhibition of 5 nM [3H]preS1 binding, 10 min, 37 °C, read-out: IC50 ([3H]preS1 binding).
The mark [5] stands for this setting: mean IC50, 5 nM [3H]preS1, standard pH 7.4, read-out: IC50 [3H]preS1 binding inhibition.
The mark [6] stands for this setting: mean IC50, […] µM [3H]TC, NTCP-HEK293 cells, standard pH 7.4, read-out: IC50 [3H]TC transport inhibition.
Where [7] appears, read: IC50 ([3H]preS1 binding), 95% confidence interval, inhibition of 5 nM [3H]preS1 binding, 10 min, 37 °C.

Each structure is given as a SMILES string. Values joined by “and” are separate entries in the source; they are usually repeats but may differ in a detail not shown here. Identical values can stand only once.

Usually IC50 stands for the concentration needed to halve the response being measured. Take `CC(=O)OC[C@]12CC[C@@H](C3(C)CO3)[C@@H]1[C@H]1CC[C@@H]3[C@@]4(C)CC[C@H](OC(C)=O)C(C)(C)[C@@H]4CC[C@@]3(C)[C@]1(C)CC2` (stereo partly shown) [Compound 26, 3,28-Di-O-acetyl-20,30-epoxybetulin]: the IC50 in experiment [1] (setting [3]) was in the range of 332 to 891 µM; in experiment [2] (setting [4]) it was 26.5 to 73 µM. In experiment [2], the Selectivity index is 12.
As for `C=C(C)C1CCC2(CO)CCC3(C)C(CCC4C5(C)CCC(OC(=O)C=Cc6ccc(O)c(O)c6)C(C)(C)C5CCC43C)C12` (stereo not shown) [Compound 27, 3-O-Caffeoylbetulin], the figures for the IC50 in experiment [1] (setting [3]), in experiment [2] (setting [4]) and in experiment [2] (setting [5]) were 85 to 195 µM, 3.35 to 10 µM and 6 µM, respectively. Besides, in experiment [2], the Selectivity index is recorded as 22.
Consider `C=C(C)[C@@H]1CC[C@]2(COC(=O)/C=C/c3ccccc3)CC[C@]3(C)[C@H](CC[C@@H]4[C@@]5(C)CC[C@H](O)C(C)(C)[C@@H]5CC[C@]43C)[C@@H]12` [Compound 15, 28-O-Cinnamoylbetulin], for which the IC50 in experiment [1] (setting [3]) lay within 72.4 to 236 µM; in experiment [2] (setting [4]), 10.9 to 31.8 µM. Moreover, the Selectivity index in experiment [2] is on record as 7.
Take `C=C(CO)C1CCC2(COC(C)=O)CCC3(C)C(CCC4C5(C)CCC(OC(C)=O)C(C)(C)C5CCC43C)C12` (stereo not shown) [Compound 25, 3,28-Di-O-acetyl-29-hydroxybetulin]: in experiment [1] (NTCP-HEK293 cells), the “[3H]TC transport inhibition (in words)” value is on record as “no transport inhibition at all”. Moreover, the IC50 is over 1000 µM in experiment [1] (setting [3]); over 1000 µM in experiment [1] (setting [6]); 5.29 to 13 µM in experiment [2] (setting [4]); < 10 µM and 8 µM in experiment [2] (setting [5]).
`C=C(C)[C@@H]1CC[C@]2(COC(=O)CCC(=O)O)CC[C@]3(C)[C@H](CC[C@@H]4[C@@]5(C)CC[C@H](O)C(C)(C)[C@@H]5CC[C@]43C)[C@@H]12` [Compound 8, 28-O-Succinoylbetulin]: the IC50 was 5.35 to 10.6 µM in experiment [1] (setting [3]); 200 µM in experiment [1] (pH shift experiment, pH 5.5 (DMEM acidified with HCl), read-out: IC50 [3H]TC uptake inhibition at pH 5.5); 8 µM in experiment [1] (pH shift experiment, pH 7.4, read-out: IC50 [3H]TC uptake inhibition at pH 7.4); 1.61 to 4.11 µM in experiment [2] (setting [4]); 2 to 3 µM in experiment [2] (setting [5]). Besides, the “IC50 [3H]preS1 binding inhibition at pH 5.5 versus pH 7.4” value in experiment [2] (pH lowered from 7.4 to 5.5) is recorded as “did not change”. The Selectivity index in experiment [2] is on record as 3.
Turning to `C=C(C)[C@@H]1CC[C@]2(C=O)CC[C@]3(C)[C@H](CC[C@@H]4[C@@]5(C)CCC(=O)C(C)(C)[C@@H]5CC[C@]43C)[C@@H]12` [Compound 18, Betulonaldehyde], the IC50 in experiment [1] (setting [3]) is 88.5 to 175 µM.
On to `C=C(C)[C@@H]1CC[C@]2(COC(=O)c3cccnc3)CC[C@]3(C)[C@H](CC[C@@H]4[C@@]5(C)CC[C@H](O)C(C)(C)[C@@H]5CC[C@]43C)[C@@H]12` [Compound 14, 28-O-Nicotinoylbetulin], for which the IC50 was 185 to 532 µM in experiment [1] (setting [3]) and 36.5 to 109 µM in experiment [2] (setting [4]). Also, the Selectivity index in experiment [2] stood at 5.
For `C=C(C)[C@@H]1CC[C@]2(COC(=O)CBr)CC[C@]3(C)[C@H](CC[C@@H]4[C@@]5(C)CC[C@H](O)C(C)(C)[C@@H]5CC[C@]43C)[C@@H]12` [Compound 7, 28-O-(Bromoacetyl)betulin], in that order: 63.5 to 126 µM, 5.28 to 11.1 µM and 11.
As for `C=C(C)[C@@H]1CC[C@]2(C(=O)OC)CC[C@]3(C)[C@H](CC[C@@H]4[C@@]5(C)CC[C@H](O)C(C)(C)[C@@H]5CC[C@]43C)[C@@H]12` [Compound 5, Methyl betulinate], the values for the IC50 in experiment [1] (read-out: IC50 ([3H]TC uptake)) and in experiment [2] (setting [7]) were 47.1 to 100 µM and 12.7 to 83.5 µM, respectively.
The like results for `CC1(C)CC[C@]23CC[C@]4(C)[C@H](CC[C@@H]5[C@@]6(C)CC[C@H](O)C(C)(C)[C@@H]6CC[C@]54C)[C@H]2[C@H]1OC3` [Compound 29, Allobetulin] were, in that order, 212 to 675 µM and 9.67 to 20.8 µM.
As for `CC1(COc2ccc(CC3SC(=O)NC3=O)cc2)CCCCC1` (stereo not shown) [ciglitazone, reference compound], in experiment [2] (setting [5]), the IC50 stood at 1.3 µM.
In the case of `CC(=O)OC[C@]12CCC(C(C)C)=C1[C@H]1CC[C@@H]3[C@@]4(C)CC[C@H](OC(C)=O)C(C)(C)[C@@H]4CC[C@@]3(C)[C@]1(C)CC2` [Compound 28, 3,28-Di-O-acetyl-18,19-dehydro-20,29-dihydrobetulin], the “[3H]TC transport inhibition (in words)” value in experiment [1] (NTCP-HEK293 cells) is on record as “no transport inhibition at all”. In addition, the values for the IC50 in experiment [1] (setting [3]), in experiment [1] (setting [6]) and in experiment [2] (setting [4]) were over 1000 µM, over 1000 µM and 30 to 133 µM, respectively. The Selectivity index in experiment [2] is reported as over 16.
As for `C=C(C)C1CCC2(COC(C)=O)CCC3(C)C(CCC4C5(C)CCC(OC(C)=O)C(C)(C)C5CCC43C)C12` (stereo not shown) [Compound 24, 3,28-Di-O-acetylbetulin], the “[3H]TC transport inhibition (in words)” value in experiment [1] (NTCP-HEK293 cells) is “no transport inhibition at all”. In addition, the half-maximal inhibitory concentration (IC50) in experiment [1] (setting [3]) was over 1000 µM; in experiment [1] (setting [6]), over 1000 µM; in experiment [2] (setting [4]), 52.6 to 756 µM; in experiment [2] (setting [5]) it was 199 µM. Besides, the Selectivity index in experiment [2] is on record as over 5.
Consider `C=C(C)C1CCC2(C=NO)CCC3(C)C(CCC4C5(C)CCC(O)C(C)(C)C5CCC43C)C12` (stereo not shown) [Compound 6, Betulinaldehyde oxime], for which the IC50 is 360 to 759 µM in experiment [1] (setting [3]), 6.61 to 18.3 µM in experiment [2] (setting [4]) and 11 µM in experiment [2] (setting [5]). The Selectivity index in experiment [2] stood at 48.
The like results for `C=C(C)[C@@H]1CC[C@]2(COC(=O)CC(C)(C)CC(=O)O)CC[C@]3(C)[C@H](CC[C@@H]4[C@@]5(C)CC[C@H](O)C(C)(C)[C@@H]5CC[C@]43C)[C@@H]12` [Compound 10, 28-O-(3,3-Dimethylglutaroyl)betulin] were, in that order, 3 to 5.91 µM, 2.48 to 7.02 µM, under 10 µM and 1.
The like results for `C=C(C)[C@@H]1CC[C@]2(COC3CCCCO3)CC[C@]3(C)[C@H](CC[C@@H]4[C@@]5(C)CC[C@H](O)C(C)(C)[C@@H]5CC[C@]43C)[C@@H]12` (stereo partly shown) [Compound 13, 28-(Tetrahydro-2H-pyran-2-yl)betulin] were, in that order, 116 to 628 µM, 9.34 to 19.5 µM, 11 to 50 µM and 19.
Regarding `C=C(C)[C@@H]1CC[C@]2(CO)CC[C@]3(C)[C@H](CC[C@@H]4[C@@]5(C)CC[C@H](OC(C)=O)C(C)(C)[C@@H]5CC[C@]43C)[C@@H]12` [Compound 22, 3-O-Acetylbetulin], the IC50 in experiment [1] (setting [3]) fell in the range of 36.5 to 152 µM; in experiment [2] (setting [4]), 20.6 to 87.4 µM. In experiment [2], the Selectivity index was determined as 2.
For `C=C(C)[C@@H]1CC[C@]2(COC(=O)CCc3ccccc3)CC[C@]3(C)[C@H](CC[C@@H]4[C@@]5(C)CC[C@H](OC(=O)CCc6ccccc6)C(C)(C)[C@@H]5CC[C@]43C)[C@@H]12` [Compound 16, 3,28-Di-O-(dihydrocinnamoyl)betulin], in that order: 176 to 1230 µM, 24.8 to 229 µM and 6.
Turning to `C=C(C)[C@@H]1CC[C@]2(COC(=O)CCC(=O)O)CC[C@]3(C)[C@H](CC[C@@H]4[C@@]5(C)CC[C@H](OC(=O)CCC(=O)O)C(C)(C)[C@@H]5CC[C@]43C)[C@@H]12` [Compound 9, 3,28-Di-O-succinoylbetulin], the IC50 in experiment [1] (setting [3]) is 3.11 to 5.02 µM; in experiment [2] (setting [4]), 2.94 to 10.1 µM; in experiment [2] (setting [5]), under 10 µM. For the same molecule, the Selectivity index in experiment [2] is reported as 1.
`C=C(C)[C@@H]1CC[C@]2(COC3CCCCO3)CC[C@]3(C)[C@H](CC[C@@H]4[C@@]5(C)CC[C@H](OC(C)=O)C(C)(C)[C@@H]5CC[C@]43C)[C@@H]12` (stereo partly shown) [Compound 23, 3-O-Acetyl-28-(tetrahydro-2H-pyran-2-yl)betulin]: the results for the IC50 in experiment [1] (setting [3]) and in experiment [2] (setting [4]) were 119 to 947 µM and 11 to 114 µM, respectively. Moreover, in experiment [2], the Selectivity index was 10.
For `C=C(C)[C@@H]1CC[C@]2(C(=O)O)CC[C@]3(C)[C@H](CC[C@@H]4[C@@]5(C)CC[C@H](OC(=O)CC(C)(C)CC(=O)O)C(C)(C)[C@@H]5CC[C@]43C)[C@@H]12` [Compound 11, 3-O-(3,3-Dimethylglutaroyl)betulinic acid], in that order: 3.08 to 4.53 µM, 3 to 5.21 µM and 1.
